The values below come from US6472349B1, “Pyridine-2,3-dicarboxylic acid diamides” (BASF Aktiengesellschaft, priority 1999, dated 2002).

In one series the test system is SOLNI. Put plainly: Herbicidal activity post-emergence in greenhouse, black nightshade. It counts as in vivo. Conditions: 100 = complete destruction, 0 = no damage. From the text:
(§1) The herbicidal action of the pyridine-2,3-dicarboxamides of the formula I was examined in greenhouse experiments: […]
(§2) The growing containers used were plastic pots containing loamy sand with approximately 3.0% of humus as the substrate. The seeds of the test plants were sown separately for each species.
(§3) For the post-emergence treatment, the test plants were first grown to a plant height of 3 to 15 cm, depending on the growth habit, and then treated with the active ingredients which had been suspended or emulsified in water. The test plants were either sown directly and grown in the same containers or first grown separately as seedlings and transplanted into the test containers a few days prior to treatment. The rate of application for the post-emergence treatment was 0.5; 0.0625; 0.0313 or 0.0156 kg/ha of a.s.
(§4) Depending on the species, the plants were kept at 10-25° C. or 20-35° C. The test period extended over 2 to 4 weeks. During this time, the plants were tended, and their response to the individual treatments was evaluated.
(§5) Evaluation was carried out using a scale from 0 to 100. 100 means no emergence of the plants or complete destruction of at least the above-ground parts, and 0 means no damage or normal course of growth.
(§6) The plants used in the greenhouse experiments belonged to the following species: […]

The next series has as its system AMARE. Nature of the series: Herbicidal activity post-emergence in greenhouse, redroot pigweed. The series is classed as in vivo. Particulars: 100 = complete destruction, 0 = no damage.
Source text: as §1, §2, §3, §4, §5, §6

Another series deals with IPOSS. Nature of the series: Herbicidal activity post-emergence in greenhouse, morning glory. The series is classed as in vivo. Particulars: 100 = complete destruction, 0 = no damage.
Source text: as §1, §2, §3, §4, §5, §6

The test system of the next series is ALOMY. Nature of the series: Herbicidal activity post-emergence in greenhouse, blackgrass. The series is classed as in vivo. Particulars: 100 = complete destruction, 0 = no damage.
Source text: as §1, §2, §3, §4, §5, §6

The next series has as its system GALAP. Nature of the series: Herbicidal activity post-emergence in greenhouse, catchweed bedstraw. It counts as in vivo. Particulars: application rate 0.5 kg of a.s./ha, 100 = complete destruction, 0 = no damage.
Source text: as §1, §2, §3, §4, §5, §6

Another series concerns ECGCG. Put plainly: Herbicidal activity post-emergence in greenhouse, barnyard grass. It counts as in vivo. Particulars: application rate 0.5 kg of a.s./ha, 100 = complete destruction, 0 = no damage.
Source text: as §1, §2, §3, §4, §5, §6

A further series deals with VIOAR. Put plainly: Herbicidal activity post-emergence in greenhouse, violet. It counts as in vivo. Conditions: application rate 0.5 kg of a.s./ha, 100 = complete destruction, 0 = no damage.
Source text: as §1, §2, §3, §4, §5, §6

Setting [1] is: application rate 0.0313 kg of a.s./ha.
Setting [2] is: application rate 0.0625 kg of a.s./ha.

In general, melting point refers to the temperature of the solid-liquid transition.

Turning to `CCCNC(=O)c1nc(OC)c(Cl)cc1C(=O)Nc1cccc(Cl)c1C`, the “Herbicidal activity (scale 0 to 100), SOLNI” value with SOLNI (setting [1]) and with SOLNI (setting [2]) was 100 throughout. Also, the “Herbicidal activity (scale 0 to 100), AMARE” value is on record as 98 in the series with AMARE (setting [1]) and 100 with AMARE (setting [2]). In addition, the “Herbicidal activity (scale 0 to 100), IPOSS” value (“Herbicidal activity … IPOSS” for short) in the series on IPOSS (setting [1]) is recorded as 98; with IPOSS (setting [2]) it was 100. The “Herbicidal activity (scale 0 to 100), ALOMY” value with ALOMY (setting [1]) was 75; in the series on ALOMY (setting [2]), 85.
Turning to `CCCNC(=O)c1nc(Cl)c(C)cc1C(=O)Nc1cccc(Cl)c1C`, the “Herbicidal activity (scale 0 to 100), GALAP” value in the series on GALAP is recorded as 100. In addition, the “Herbicidal activity (scale 0 to 100), ECHCG” value with ECGCG is on record as 100. The “Herbicidal activity (scale 0 to 100), VIOAR” value in the series on VIOAR turned out to be 100. Also, the “Herbicidal activity … IPOSS” value in the series with IPOSS (application rate 0.5 kg of a.s./ha) turned out to be 100.
Compound `CCCNC(=O)c1nc(C)ccc1C(=O)Nc1cccc2ccccc12` [Example 1, N-n-Propyl-3-(1-naphthyl)aminocarbonyl-6-methylpyridine-2-carboxamide] had a melting point of 175 to 178 °C.
On the same count and under the same terms, the same measure for `CCCNC(=O)c1nc(C)ccc1C(=O)Nc1cccc(SC)c1C` [Example 2, N-n-Propyl-3-(2-methyl-3-methylthiophenyl)aminocarbonyl-6-methylpyridine-2-carboxamide]: 151 to 152 °C.
Still for that read-out and setting: the figure for `Cc1ccc2c(n1)C(=O)N(c1cccc(S(C)(=O)=O)c1C)C2=O` [Example 3, N-(2-Methyl-3-methylsulfonylphenyl)-6-methylpyridine-2,3-dicarboximide] is 180 to 181 °C.
Take `CCCNC(=O)c1nc(C)ccc1C(=O)Nc1cccc2ccccc12` [drawing 67]: the figures for the “Herbicidal activity (scale 0 to 100), AMARE” value in the series on AMARE (setting [1]) and in the series with AMARE (setting [2]) were 98 and 100, respectively. For the same compound, the “Herbicidal activity … IPOSS” value is listed as 98 in the series on IPOSS (setting [1]) and 100 in the series with IPOSS (setting [2]). In addition, the “Herbicidal activity (scale 0 to 100), ALOMY” value in the series on ALOMY (setting [1]) is on record as 75; in the series on ALOMY (setting [2]), 85.
